Test results published in publication PMC10905675, “INX-315, a Selective CDK2 Inhibitor, Induces Cell Cycle Arrest and Senescence in Solid Tumors” (Cancer Discovery, 2023).
Where two headings read alike, the source gives them in different places. Values belong to the molecule of their own block, whether it stands above or below them.

Experiments:
[1] = Microsomal stability assay; type: in vitro ADME; conditions: 60 min incubation
Method: Microsomal stability was determined by Absorption Systems (Exton, PA). INX-315 was tested in mixed-gender human liver microsomes (Lot #1010420), male Sprague-Dawley rat liver microsomes (Lot #1910100), male CD-1 mouse liver microsomes (Lot #2010017), and male beagle dog liver microsomes (Lot #2010046) were purchased from XenoTech/BioIVT by Absorption Systems. The reaction mixture, minus NADPH, was prepared as described below. The test article was added into the reaction mixture at a final concentration of 1 µmol/L. The control compound, testosterone, was run simultaneously with the test article in a separate reaction. The reaction mixture (without cofactor) was equilibrated in a shaking water bath at 37°C for 5 minutes. The reaction was initiated by the addition of the cofactor, and the mixture was incubated in a shaking water bath at 37°C. Aliquots (100 µL) were withdrawn at 0, 10, 20, 30, and 60 minutes. Test article and testosterone samples were immediately combined with 400 µL of ice-cold 50/50 acetonitrile (ACN)/H2O containing 0.1% formic acid and internal standard to terminate the reaction. The samples were then mixed and centrifuged to precipitate proteins. All samples were assayed by LC-MS/MS using electrospray ionization. The peak area response ratio (PARR) of analyte to internal standard at each time point was compared to the PARR at time 0 to determine the percent remaining at each time point. Half-lives and clearance were calculated using GraphPad software (RRID:SCR_002798), fitting to a single-phase exponential decay equation.

[2] = target: T1, CDK5/p25 (Homo sapiens, UniProt Q00535); test: Nanosyn biochemical assay; conditions: ATP at Km, value (SEM), read-out: IC50 (nmol/L) CDK5/p25
T1 construct: purchased BPS 40105
Method: (§1) Compounds were tested in kinase assays (Nanosyn, Inc.). The assays were completed using microfluidic kinase detection technology (Caliper Assay Platform). The compounds were tested in 12-point dose–response format in singlicate at the Km for ATP. Phosphoacceptor substrate peptide concentration used was 1 µmol/L and staurosporine was used as the reference compound for all assays. Details for individual Nanosyn assays performed are provided here: […]

[3] = target: T2, CDK1/cyclin B1 (Homo sapiens, UniProt P06493); test: Nanosyn biochemical assay; conditions: value (SEM)
T2 construct: purchased Millipore 14-450M
Method: as §1

[4] = target: T3, CDK7 (Homo sapiens, UniProt P50613); test: Nanosyn biochemical assay; conditions: ATP at Km, value (SEM), read-out: IC50 (nmol/L) CDK7
T3 construct: purchased Carna 04-108
Method: as §1

[5] = target: T4, CDK9/cyclin T1 (Homo sapiens, UniProt P50750); test: Nanosyn biochemical assay; conditions: value (SEM)
T4 construct: purchased Carna 04-110
Method: as §1

[6] = target: T5, CDK3/cyclin E1 (Homo sapiens, UniProt Q00526); test: Nanosyn biochemical assay; conditions: ATP at Km, value (SEM), read-out: IC50 (nmol/L) CDK3/cyclin E1
T5 construct: purchased BPS 40103
Method: as §1

[7] = target: T6, CDK2/cyclin E1 (Homo sapiens, UniProt P24941); test: Nanosyn biochemical assay; conditions: Nanosyn, ATP at Km; value (SEM); read-out: IC50 (nmol/L) CDK2/cyclin E1
T6 construct: purchased Millipore 14-475
Method: as §1

[8] = target: T7, CDK4/cyclin D1 (Homo sapiens, UniProt P11802); test: Nanosyn biochemical assay; conditions: ATP at Km, value (SEM), read-out: IC50 (nmol/L) CDK4/cyclin D1
T7 construct: purchased ThermoFisher PV4400
Method: as §1

[9] = target: T8, CDK5 (Homo sapiens, UniProt Q00535); test: Nanosyn biochemical assay; conditions: ATP at Km, value (SEM), read-out: IC50 (nmol/L) CDK5
T8 construct: purchased ThermoFisher PV3000
Method: as §1

[10] = target: T9, CDK6/cyclin D3 (Homo sapiens, UniProt Q00534); test: Nanosyn biochemical assay; conditions: value (SEM)
T9 construct: purchased Carna 04-107
Method: as §1

[11] = target: T10, CDK2/cyclin A2 (Homo sapiens, UniProt P24941); test: Nanosyn biochemical assay; conditions: ATP at Km, value (SEM), read-out: IC50 (nmol/L) CDK2/cyclin A2
T10 construct: purchased Millipore 14-448
Method: as §1

[12] = system: all CCNE1-amplified lines; test: CellTiter Glo viability assay; type: cell-based; conditions: all CCNE1-amplified lines, INX-315 vs PF-07104091, 6 days
Method: (§2) An exception to this is MCF7PDRCl5-1 cells which were first cultured for 5 days without palbociclib then plated as described. MCF7PDRCl5-1 cells were treated with either a dose curve of the indicated CDK4/6i or a dose curve of INX-315 + 1 µmol/L of the indicated CDK4/6i. Cell viability was determined using the CellTiter-Glo assay (Promega, G9241) following manufacturer's instructions. Plates were processed on either BioTek Synergy2 multi-mode (Agilent) or ClarioSTAR (BMG Labtech) plate readers. T47D and MCF7 cells were seeded into […] plates using BioTek 406 (Aglient) and treated with a ten-point dose concentration from 10 µmol/L to 0.3 nmol/L of INX-315 for 2× doubling times. Plates were fixed with 4% PFA and stained with Rhodamine-Phalloidin (Bio-Trend, 00027) and DAPI (5 mg/mL, Invitrogen, catalog no. D1306). Plates were imaged using CellInsight CX7 LZR and DAPI-positive cells were counted using Thermo Fisher Scientific HCS Studio Cell Analysis Software.

[13] = target: T2, CDK1/cyclin B1; test: NanoBRET live cell target engagement; type: binding; conditions: Supp Fig S1E, NanoBRET; read-out: Intracellular IC50 (nM) CDK1/B1
Method: (§3) Reaction Bio (Malvern, PA) conducted NanoBRET assays utilizing Promega NanoLuc technology with two replicates per experiment. The CDK2/E1 and CDK1/B1 values are the average of two separate experiments.
(§4) HEK293 cells were transfected using Opti-MEM without serum containing ratios of 9.0 µg/mL of Transfection Carrier DNA, 1.0 µg/mL of NanoLuc fusion vector DNA and 1 mL of Opti-MEM without phenol red. 30 µL of FuGENE HD transfection reagent was added to each milliliter of DNA mixture to form lipid:DNA complex. After incubation for 20 minutes at room temperature, 1 part lipid/DNA complex was added to 20 parts HEK293 cells in suspension. Cells were then plated and incubated overnight before being trypsinized and resuspended at 2 × 10^5 cells/mL. NanoBRET tracer reagent was added to cells at a ratio of 1 part tracer to 20 parts cell suspension. Cells were added to a 384-well plate and incubated for 1 hour. Plates were removed and incubated at room temperature for 15 minutes to equilibrate before 3x complete substrate plus inhibitor was added. After 2–3 minutes of incubation at room temperature, donor and acceptor wavelengths (460 nm and 600 nm, respectively) were measured using an Envision 2104 plate reader.

[14] = target: T4, CDK9/cyclin T1; test: NanoBRET live cell target engagement; type: binding; conditions: Supp Fig S1E, NanoBRET; read-out: Intracellular IC50 (nM) CDK9/T1
Method: as §3, §4

[15] = system: MCF7 Abema-resistant; test: Cell number dose-response; type: cell-based; conditions: Supp Fig S7D, Abema-Resistant in 500 nM abemaciclib, 7 days; read-out: IC50 (nM) MCF7
Source text: (§5) MCF7 abemaciclib-resistant cells were generated by continuous treatment with abemaciclib at a concentration of 250 nmol/L for 72 days, followed by 500 nmol/L for 48 days. MCF7 fulvestrant-resistant cells were generated by continuous treatment of 100 nmol/L Fulvestrant for 125 days. MCF7 abemaciclib/fulvestrant-resistant cells were generated by treating abemaciclib-resistant cells continuously with 100 nmol/L fulvestrant for 137 days. T47D abemaciclib-resistant lines were generated by continuous treatment with abemaciclib at a concentration of 500 nmol/L for 73 days. T47D fulvestrant–resistant cells were generated by continuous treatment with 100 nmol/L fulvestrant for 68 days. T47D abemaciclib/fulvestrant-resistant cells were generated by treating abemaciclib-resistant cells with continuous treatment of 100 nmol/L Fulvestrant for 60 days. Resistant cell lines were cultured in medium containing drug(s) that the line is resistant to and further authenticated using short tandem repeat profiling.
as §2

[16] = system: MCF7 Parent; test: Cell number dose-response; type: cell-based; conditions: Supp Fig S7D, 7 days, read-out: IC50 (nM) MCF7
Source text: as §5, §2

[17] = system: MCF7 Fulv-resistant; test: Cell number dose-response; type: cell-based; conditions: Supp Fig S7D, Fulv-Resistant in 100 nM fulvestrant, 7 days; read-out: IC50 (nM) MCF7
Source text: as §5, §2

[18] = system: ST4316B PDX; test: PDX tumor growth; type: in vivo, mice; conditions: monotherapy; ribociclib 50 mg/kg per day
Method: PDX models were performed by Crown Biosciences (OV5398, GA0103, and GA0114) or XenoSTART (ST4316B). Tumor fragments from stock mice were harvested and implanted subcutaneously into the flank of NOD/SCID mice (OV5398, RRID:IMSR_JAX:001303), BALB/c nude mice (GA0103 and GA0114, RRID:IMSR_RJ:BALB-C-NUDE), or athymic nude mice (Crl:NU(NCr)-Foxn1nu, RRID:IMSR_CRL:490) (ST4316B). For CDX models, female athymic nude mice (Crl:NU(NCr)-Foxn1nu, RRID:IMSR_CRL:490) were inoculated with 1 × 10^7 50% Cultrex OVCAR3 cells in the flank. Experiments performed using MMTV-rtTA/tetO-HER2 mice were performed at the Peter MacCallum Cancer Centre. Tumor formation was induced and sustained in female mice with doxycycline as previously described ([33]). Randomization and treatment in all models began when median tumor volume reached a maximum of 300 mm^3.
Mice were treated via oral gavage. INX-315 was prepared weekly in 100% PEG400; abemaciclib was prepared as previously described ([33]) and ribociclib (Selleckchem, S7440) was prepared weekly in 0.5% methyl cellulose. To generate abemaciclib-resistant MMTV-rtTA/tetO-HER2 tumors, mice were treated continuously with abemaciclib at a dose of 75 mg/kg until tumors resumed growth as described in text. At this point and in all other MMTV-rtTA/tetO-HER2 mice experiments, mice were randomized into treatment groups and abemaciclib was administered to indicated groups at a dose of 50 mg/kg. In all MMTV-rtTA/tetO-HER2 mice experiments, INX-315 was administered at a dose of 50 mg/kg twice daily. For PDX model ST4316B, ribociclib was administered at 50 mg/kg per day.

T2 sequence (P06493 whole entry): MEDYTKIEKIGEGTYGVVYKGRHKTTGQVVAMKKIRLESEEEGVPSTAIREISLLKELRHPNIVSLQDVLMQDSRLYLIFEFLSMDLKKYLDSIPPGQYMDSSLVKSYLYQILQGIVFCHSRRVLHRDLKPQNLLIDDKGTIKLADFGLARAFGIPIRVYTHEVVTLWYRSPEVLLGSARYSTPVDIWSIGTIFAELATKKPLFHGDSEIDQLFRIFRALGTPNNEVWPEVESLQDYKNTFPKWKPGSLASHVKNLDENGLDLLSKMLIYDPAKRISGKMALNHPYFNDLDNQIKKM
T2 sequence (P14635 whole entry partner): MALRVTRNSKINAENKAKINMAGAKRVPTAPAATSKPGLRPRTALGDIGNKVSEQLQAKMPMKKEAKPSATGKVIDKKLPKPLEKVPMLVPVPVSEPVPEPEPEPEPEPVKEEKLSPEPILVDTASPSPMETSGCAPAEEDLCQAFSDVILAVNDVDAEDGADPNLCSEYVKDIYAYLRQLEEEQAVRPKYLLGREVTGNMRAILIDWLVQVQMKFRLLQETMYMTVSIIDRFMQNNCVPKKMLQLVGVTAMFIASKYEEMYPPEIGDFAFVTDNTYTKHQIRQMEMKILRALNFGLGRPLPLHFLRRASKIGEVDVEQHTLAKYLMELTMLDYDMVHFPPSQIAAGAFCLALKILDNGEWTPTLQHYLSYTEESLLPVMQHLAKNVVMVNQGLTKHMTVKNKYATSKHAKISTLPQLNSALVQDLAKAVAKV
T4 sequence (P50750 whole entry): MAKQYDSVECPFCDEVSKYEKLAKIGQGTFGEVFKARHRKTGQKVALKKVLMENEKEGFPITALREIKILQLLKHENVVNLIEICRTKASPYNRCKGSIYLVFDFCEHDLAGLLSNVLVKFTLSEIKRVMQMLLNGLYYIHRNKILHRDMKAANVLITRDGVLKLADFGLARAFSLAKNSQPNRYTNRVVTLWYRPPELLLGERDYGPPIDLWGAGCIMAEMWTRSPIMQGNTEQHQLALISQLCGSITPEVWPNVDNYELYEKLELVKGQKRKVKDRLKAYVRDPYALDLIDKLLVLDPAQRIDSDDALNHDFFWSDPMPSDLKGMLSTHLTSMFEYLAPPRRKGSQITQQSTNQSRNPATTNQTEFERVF
T4 sequence (O60563 whole entry partner): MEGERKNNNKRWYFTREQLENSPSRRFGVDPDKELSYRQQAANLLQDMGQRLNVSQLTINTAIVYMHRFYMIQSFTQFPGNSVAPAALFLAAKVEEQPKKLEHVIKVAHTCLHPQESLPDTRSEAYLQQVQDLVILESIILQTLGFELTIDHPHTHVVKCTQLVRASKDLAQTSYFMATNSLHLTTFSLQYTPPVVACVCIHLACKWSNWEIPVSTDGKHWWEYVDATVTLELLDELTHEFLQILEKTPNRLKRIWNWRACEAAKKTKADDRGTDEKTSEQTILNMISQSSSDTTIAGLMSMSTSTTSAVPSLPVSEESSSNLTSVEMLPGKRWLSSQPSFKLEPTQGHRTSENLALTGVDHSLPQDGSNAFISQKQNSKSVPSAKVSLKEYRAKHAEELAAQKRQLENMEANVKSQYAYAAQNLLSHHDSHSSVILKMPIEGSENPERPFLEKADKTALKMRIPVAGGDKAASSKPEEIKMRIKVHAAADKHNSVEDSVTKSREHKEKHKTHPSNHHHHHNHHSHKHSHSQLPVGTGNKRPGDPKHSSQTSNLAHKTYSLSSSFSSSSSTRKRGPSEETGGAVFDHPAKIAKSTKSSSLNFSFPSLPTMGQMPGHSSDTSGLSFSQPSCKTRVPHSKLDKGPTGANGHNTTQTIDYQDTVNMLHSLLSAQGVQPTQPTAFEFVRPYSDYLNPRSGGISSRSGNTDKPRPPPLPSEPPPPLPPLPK
T9 sequence (Q00534 whole entry): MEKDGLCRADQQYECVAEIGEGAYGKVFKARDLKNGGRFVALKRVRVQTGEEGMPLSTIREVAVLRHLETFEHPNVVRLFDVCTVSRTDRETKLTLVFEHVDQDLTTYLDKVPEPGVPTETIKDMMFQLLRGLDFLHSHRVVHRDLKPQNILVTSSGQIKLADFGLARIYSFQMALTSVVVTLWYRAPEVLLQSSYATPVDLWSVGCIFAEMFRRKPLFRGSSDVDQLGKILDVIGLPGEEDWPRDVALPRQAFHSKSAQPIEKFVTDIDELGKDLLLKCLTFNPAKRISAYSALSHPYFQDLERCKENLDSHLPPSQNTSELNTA
T9 sequence (P30281 whole entry partner): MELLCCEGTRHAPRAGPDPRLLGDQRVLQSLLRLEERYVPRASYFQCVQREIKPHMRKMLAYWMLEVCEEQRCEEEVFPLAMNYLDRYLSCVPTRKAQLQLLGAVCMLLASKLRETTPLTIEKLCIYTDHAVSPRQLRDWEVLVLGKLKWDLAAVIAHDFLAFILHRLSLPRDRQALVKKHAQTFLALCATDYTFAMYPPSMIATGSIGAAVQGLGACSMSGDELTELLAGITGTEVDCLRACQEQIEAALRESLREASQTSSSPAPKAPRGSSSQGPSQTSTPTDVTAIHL
T8 sequence (Q00535 whole entry): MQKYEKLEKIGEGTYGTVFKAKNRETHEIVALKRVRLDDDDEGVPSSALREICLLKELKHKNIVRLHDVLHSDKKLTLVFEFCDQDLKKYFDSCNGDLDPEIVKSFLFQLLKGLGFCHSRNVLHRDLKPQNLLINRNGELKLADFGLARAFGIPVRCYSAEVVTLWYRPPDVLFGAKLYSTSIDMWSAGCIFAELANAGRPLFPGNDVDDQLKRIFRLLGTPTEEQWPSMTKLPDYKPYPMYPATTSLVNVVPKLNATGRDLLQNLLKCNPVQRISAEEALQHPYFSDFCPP
T8 sequence (Q15078 2-307 partner limits assumed): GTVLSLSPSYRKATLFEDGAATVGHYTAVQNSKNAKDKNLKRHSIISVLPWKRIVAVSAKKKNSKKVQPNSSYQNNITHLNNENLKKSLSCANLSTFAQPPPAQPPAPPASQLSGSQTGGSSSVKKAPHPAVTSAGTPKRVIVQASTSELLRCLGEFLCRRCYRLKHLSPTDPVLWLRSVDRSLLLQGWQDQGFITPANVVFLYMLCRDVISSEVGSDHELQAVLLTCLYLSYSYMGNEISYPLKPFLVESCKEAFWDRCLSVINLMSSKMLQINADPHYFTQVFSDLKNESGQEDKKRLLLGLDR
T1 sequence (Q00535 whole entry): as the sequence (Q00535 whole entry) above
T1 sequence (Q15078 99-307 partner limits assumed): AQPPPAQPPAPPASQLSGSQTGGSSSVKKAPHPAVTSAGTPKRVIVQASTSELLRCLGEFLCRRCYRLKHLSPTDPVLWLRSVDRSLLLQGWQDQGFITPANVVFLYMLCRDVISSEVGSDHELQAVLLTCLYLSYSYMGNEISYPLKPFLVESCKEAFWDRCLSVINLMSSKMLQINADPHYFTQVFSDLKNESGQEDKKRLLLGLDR
T3 sequence (P50613 whole entry): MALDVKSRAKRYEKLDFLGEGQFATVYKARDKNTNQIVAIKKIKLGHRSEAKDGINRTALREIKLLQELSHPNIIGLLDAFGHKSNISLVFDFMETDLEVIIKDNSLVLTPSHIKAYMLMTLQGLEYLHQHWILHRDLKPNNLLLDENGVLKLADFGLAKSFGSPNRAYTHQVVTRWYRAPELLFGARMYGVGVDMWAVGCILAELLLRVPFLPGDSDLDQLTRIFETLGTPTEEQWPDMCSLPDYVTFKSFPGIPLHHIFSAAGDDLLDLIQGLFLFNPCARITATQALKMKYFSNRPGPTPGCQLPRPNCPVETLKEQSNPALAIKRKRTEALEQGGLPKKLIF
T3 sequence (P51946 whole entry partner): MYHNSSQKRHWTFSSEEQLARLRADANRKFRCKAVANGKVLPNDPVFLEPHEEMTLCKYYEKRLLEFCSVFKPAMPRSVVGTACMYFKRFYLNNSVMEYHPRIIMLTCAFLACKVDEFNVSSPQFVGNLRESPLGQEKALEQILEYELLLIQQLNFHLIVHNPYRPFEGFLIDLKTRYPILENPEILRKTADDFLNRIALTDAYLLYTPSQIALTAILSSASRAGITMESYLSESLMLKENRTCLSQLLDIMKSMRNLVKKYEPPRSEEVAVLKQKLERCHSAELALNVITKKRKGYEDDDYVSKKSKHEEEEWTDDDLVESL
T3 sequence (P51948 whole entry partner): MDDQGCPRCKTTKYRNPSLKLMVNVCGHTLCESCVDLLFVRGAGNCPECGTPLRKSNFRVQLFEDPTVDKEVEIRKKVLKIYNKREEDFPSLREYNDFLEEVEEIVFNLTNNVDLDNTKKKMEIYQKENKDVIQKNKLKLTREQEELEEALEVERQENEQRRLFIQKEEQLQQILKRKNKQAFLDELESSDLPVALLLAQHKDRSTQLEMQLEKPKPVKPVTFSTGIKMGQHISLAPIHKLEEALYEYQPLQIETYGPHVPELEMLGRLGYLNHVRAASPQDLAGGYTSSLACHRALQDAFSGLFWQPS

half-life at 1 µmol/L ([1]; both sexes, human, liver microsomes, 1 µmol/L, read-out: Half-life): < 10 min
half-life at 1 µmol/L ([1]; male, CD-1, liver microsomes, Mouse microsomes): < 10 min
half-life at 1 µmol/L ([1]; male, Sprague-Dawley, rat, liver microsomes, 1 µmol/L, read-out: Half-life): < 10 min
half-life at 1 µmol/L ([1]; male, beagle, dog, liver microsomes, 1 µmol/L, read-out: Half-life): < 10 min
IC50 [2]: 0.4 nmol/L
IC50 ([3]; ATP at Km, read-out: IC50 (nmol/L) CDK1/cyclin B1): 1.2 nmol/L
IC50 [4]: 33.5 nmol/L
IC50 ([5]; ATP at Km, read-out: IC50 (nmol/L) CDK9/cyclin T1): 1.6 nmol/L
IC50 [6]: 0.5 nmol/L
IC50 [7]: 0.1 nmol/L
IC50 [8]: 3.6 nmol/L
IC50 [9]: 0.5 nmol/L
IC50 ([10]; ATP at Km, read-out: IC50 (nmol/L) CDK6/cyclin D3): 8.6 nmol/L
IC50 [11]: 0.1 nmol/L
SMILES: NS(=O)(=O)c1ccc(Nc2ncc3cc4n(c3n2)C2(CCCCC2)CN=C4)cc1 [Compound B]

SMILES: COCc1cc(C(=O)Nc2cc([C@H]3CC[C@@H](OC(=O)NC(C)C)C3)[nH]n2)n(C)n1 [PF-07104091, reference compound]
IC50 [12]: 125 nM
IC50 [13]: 1180 nM
IC50 [14]: > 10000 nM
IC50 ([3]; Supp Fig S1C, read-out: IC50 (nM) CDK1/B1): 65.8 nmol/L
IC50 ([5]; Supp Fig S1C, read-out: IC50 (nM) CDK9/cyclin T1): 363 nmol/L
IC50 ([10]; Supp Fig S1C, read-out: IC50 (nM) CDK6/cyclin D3): > 1000 nmol/L
IC50 [15]: 41.8 nM
IC50 ([16]; Parent in DMSO): 562 nM
IC50 ([16]; Parent+Abema: 500 nM abemaciclib concurrently): 232 nM
IC50 [17]: 508 nM

SMILES: CN(C)C(=O)c1cc2cnc(Nc3ccc(N4CCNCC4)cn3)nc2n1C1CCCC1 [ribociclib, reference compound]
tumor growth [18]: slowed tumor growth modestly
